Assay results as given in patent publication US5155110A, “Fenamic acid hydroxamate derivatives having cyclooxygenase and 5-lipoxygenase inhibition” (Warner-Lambert Company, priority 1988, dated 1992).
Read-outs that look alike come from different tables or passages of the source.

Key:
[1] = test system: Mycobacterium-induced rat footpad edema; assay: Mycobacterium-Induced Rat Footpad Edema Assay (MFE); type: in vivo; details: PO, one hour before Mycobacterium and Days 1 and 2, swelling at 72 hours, read-out: MFE ID40
Description: Mycobacterium--Induced Rat Footpad Edema Assay (MFE): Protocol
Myobacterium butyricum (5 mg/ml) is suspended in paraffin oil by sonication for ten minutes in an ice bath. Footpad edema is induced on Day 0 by injecting 0.1 ml of the Mycobacterium mixture into the left hindpaw of lightly anesthetized rats. Swelling in the injected hindpaw is determined by mercury plethysmography 72 hours after injection. Groups of rats are treated with test compounds (suspended in 0.5% hydroxypropyl methylcellulose with 0.2% Tween-80) or vehicle one hour before Myobacterium injection and on Days 1 and 2. Inhibition of swelling is determined by comparing the change in hindpaw volume in compound- and vehicle-treated rats. […] (the dose at which swelling is inhibited by 40%) was calculated by probit analysis.

[2] = test system: gastric ulcers in rats; assay: Gastric Ulcerogenicity (UD); type: in vivo, rat; details: @ 200 mg/kg PO, fasted male Wistar rats, six hours
Description: (§1) Gastric Ulcerogenicity (UD)
(§2) Male outbred Wistar rats (100-250 gms) were fasted for 24 hours. After fasting, test compounds were administered orally (in 2 ml/kg of 0.5% hydroxypropyl methylcellulose) and the rats were denied access to food and water for six more hours. The rats were then sacrificed with CO2 so that the stomachs could be removed, opened along the greater curvature, and evaluated for the presence of gastric ulcers. Results are expressed as the percent of rats with gastric ulcers at a given dose.

[3] = test system: carrageenan-induced rat foot paw edema; assay: Carrageenan-Induced Rat Foot Paw Edema (CFE-2); type: in vivo; details: 5 h, read-out: CFE-2 ID25
Description: Carrageenan-Induced Rat Foot Paw Edema2 (CFE2)
Carrageenan solution (1% w/v) is prepared by dissolving 100 mg carrageenan (Marine Colloidal Div., Springfield, N.J.) in 10 ml of sterile saline (0.9%) solution (Travenol). The solution is vortexed for 30 to 45 minutes. Animals are dosed with compound one hour before carrageenan challenge. Foot paw edema is induced by injecting 0.05 ml of the 1% carrageenan subcutaneously into the plantar portion of the right hind paw of each rat under light anesthesia. Initial foot paw volume is measured immediately following carrageenan challenge using mercury plethysmography (Buxco Electronics). Edema is measured five hours after carrageenan. The difference between the five-hour and the initial paw volume is expressed as delta edema. The delta edema for each test group of animals is used to calculate the percent inhibition of edema achieved by the compound at the test dose compared with the vehicle control group. The ID25 (the dose at which swelling is inhibited by 25%) was calculated by probit analysis for the dose at which a result of 25 percent inhibition occurs.

[4] = target: T1, 5-lipoxygenase (Rattus norvegicus, UniProt P12527); assay: ARBL whole cell 5-lipoxygenase assay (LTB4 formation in RBL-1 cells); type: cell-based; details: RBL-1 whole cells; for IC50: A23187 5 μM, read-out: ARBL IC50 for LTB4 inhibition
T1 construct: host or cells: RBL-1 (rat basophilic leukemia)
T1 sequence (P12527 1-673): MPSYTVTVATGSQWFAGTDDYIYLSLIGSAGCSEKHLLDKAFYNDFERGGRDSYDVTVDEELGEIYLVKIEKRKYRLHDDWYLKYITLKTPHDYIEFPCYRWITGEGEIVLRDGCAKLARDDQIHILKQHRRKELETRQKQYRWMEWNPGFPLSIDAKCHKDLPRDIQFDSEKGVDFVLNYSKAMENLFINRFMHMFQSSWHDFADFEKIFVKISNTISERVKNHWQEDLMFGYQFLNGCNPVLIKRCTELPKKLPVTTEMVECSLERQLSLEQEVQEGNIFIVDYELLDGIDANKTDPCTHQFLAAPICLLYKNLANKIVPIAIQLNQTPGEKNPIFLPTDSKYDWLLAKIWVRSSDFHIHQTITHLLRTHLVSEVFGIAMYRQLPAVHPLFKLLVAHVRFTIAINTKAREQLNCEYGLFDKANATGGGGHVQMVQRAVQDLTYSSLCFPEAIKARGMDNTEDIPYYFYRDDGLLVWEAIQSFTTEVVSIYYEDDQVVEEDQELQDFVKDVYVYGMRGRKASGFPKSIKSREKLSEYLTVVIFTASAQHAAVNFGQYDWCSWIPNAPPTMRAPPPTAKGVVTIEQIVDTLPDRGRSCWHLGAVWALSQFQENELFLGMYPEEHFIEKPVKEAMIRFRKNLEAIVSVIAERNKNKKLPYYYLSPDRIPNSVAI
Description: (§3) ARBL/ARBC Whole Cell 5-Lipoxygenase and Cyclooxygenase Assays
(§4) The rat basophilic leukemia cell line (RBL-1) was obtained from the American Type Culture Collection (Rockville, Md.).
(§5) Radioimmuno assay (RIA) kits of LTB4 and PGF2.sbsb.α were obtained from Amersham (Arlington Heiqhts, Ill.) and Seragen (Boston, Mass.) respectively.
(§6) All tissue culture media were obtained from GIBCO (Grand Island, N.Y.).
(§7) RBL-1 cells are grown in suspension culture in Eagle's minimum essential medium supplemented with 12% fetal bovine serum at 37° C. in an incubator supplied with air-5% carbon dioxide. Cells are harvested by centrifugation. They are washed with cold phosphate buffered saline pH 7.4 (PBS; NaCl, […]; Na2 HPO4, 1.15 g; KH2 PO4, 0.2 g; and KCl, 0.2 g/l). Cells are finally suspended in PBS containing 1.0 mM calcium at a density of 2×10^6 cells/ml. Cells are incubated with and without test agent (in DMSO) (1% DMSO is without effect on arachidonic acid metabolism) for ten minutes at room temperature. Calcium ionophore A23187 (5 μM) is added and cells are incubated for seven minutes at 37° C. The reaction is stopped by chilling the tubes on ice for ten minutes. Cells are separated by centrifugation and the supernatant is stored at -20°. Aliquots (100 μl) are analyzed for LTB4 and PGF2.sbsb.α using radioimmuno assay kits as provided by the supplier.

[5] = target: T2, cyclooxygenase (Rattus norvegicus, UniProt Q63921); assay: ARBC whole cell cyclooxygenase assay (PGF2α formation in RBL-1 cells); type: cell-based; details: RBL-1 whole cells; for IC50: A23187 5 μM, read-out: ARBC IC50 for PGF2α inhibition
T2 construct: host or cells: RBL-1 (rat basophilic leukemia)
T2 sequence (Q63921 27-602): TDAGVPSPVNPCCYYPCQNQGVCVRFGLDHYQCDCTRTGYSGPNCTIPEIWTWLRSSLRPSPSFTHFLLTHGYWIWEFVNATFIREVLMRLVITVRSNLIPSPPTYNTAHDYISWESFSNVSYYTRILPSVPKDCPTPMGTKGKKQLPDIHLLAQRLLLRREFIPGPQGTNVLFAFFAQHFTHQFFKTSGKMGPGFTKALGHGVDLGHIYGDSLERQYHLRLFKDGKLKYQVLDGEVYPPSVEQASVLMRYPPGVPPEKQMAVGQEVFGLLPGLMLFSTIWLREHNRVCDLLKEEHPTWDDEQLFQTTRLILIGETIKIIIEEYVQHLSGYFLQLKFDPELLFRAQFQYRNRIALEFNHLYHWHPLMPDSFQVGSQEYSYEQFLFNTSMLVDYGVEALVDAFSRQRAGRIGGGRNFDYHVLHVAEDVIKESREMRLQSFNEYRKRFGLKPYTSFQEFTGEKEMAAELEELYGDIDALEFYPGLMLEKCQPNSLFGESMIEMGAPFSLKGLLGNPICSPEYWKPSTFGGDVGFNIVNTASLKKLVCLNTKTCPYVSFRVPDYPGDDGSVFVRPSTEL
Description: as §3, §4, §5, §6
as §7, with “Cells are finally suspended in PBS containing 1.0 mM calcium at a density of 2×10^6 cells/ml. Cells are incubated with and without test agent (in DMSO) (1% DMSO is without effect on arachidonic acid metabolism) for ten minutes at room temperature.” left out

[6] = Gastric Ulcerogenicity (UD); type: in vivo, rat; details: rat, in vivo; fasted male Wistar rats, PO, six hours; read-out: UD50 (dose which produces a 50% occurrence of ulcers in rats)
Description: as §1, §2

[7] = rat, PO, dosed one hour before carrageenan, edema at five hours

| IC50 [4] [µM] | SMILES | ED40 [1] [mg/kg] | UD: percent of rats with gastric ulcers [2] | also measured |
| --- | --- | --- | --- | --- |
|  | Cc1ccc(Cl)c(Nc2ccccc2C(=O)N(O)Cc2ccccc2)c1Cl [Example 1, 2-[(2,6-Dichloro-3-methylphenyl)amino]-N-hydroxy-N-phenylmethylbenzamide] | 27 | N (N is 0% of rats have ulcers occurring at 200 mg.) |  |
| 3.9 | Cc1ccc(Cl)c(Nc2ccccc2C(=O)NO)c1Cl [Example 2, 2-[(2,6-dichloro-3-methylphenyl)amino]-N-hydroxybenzamide] | 2.5 | N (N is 0% of rats have ulcers occurring at 200 mg.) | ED25 [3, 7]: 0.2 mg/kg |
| 1.5 | Cc1ccc(Cl)c(Nc2ccccc2C(=O)N(C)O)c1Cl [Example 3, 2-[(2,6-dichloro-3-methylphenyl)amino]-N-hydroxy-N-methylbenzamide] | 24 | N (N is 0% of rats have ulcers occurring at 200 mg.) | ED25 [3, 7]: 1.3 mg/kg |
| 16 | CONC(=O)c1ccccc1Nc1c(Cl)ccc(C)c1Cl [Example 4, Ortho-2,6-dichloro-3-methylanilinobenzhydroxamic acid O-methyl ether] |  |  |  |
| 1.8 | Cc1cccc(Nc2ccccc2C(=O)NO)c1C [Example 9, 2-[(2,3-dimethylphenyl)amino]-N-hydroxybenzamide] |  |  | inhibition at 0.5 µM ([5]; @ 0.5 μM): 60% |
|  | O=C(NO)c1ccccc1Nc1c(Cl)cccc1Cl [Example 10, 2-[(2,6-dichlorophenyl)amino]-N-hydroxybenzamide] |  |  | inhibition at 16 µM ([5]; @ 16 μM): 80%; inhibition at 16 µM ([4]; @ 16 μM): 88% |
| 3.2 | Cc1ccc(Cl)c(N2CN(O)C(=O)c3ccccc32)c1Cl [Example 35, 1-(2,6-dichloro-3-methylphenyl)-2,3-dihydro-3-hydroxy-4(1H)-quinazolinone] |  |  | IC50 [5]: 2.2 µM |
| 6.5 | Cc1ccc(Cl)c(N2C(=O)C(=NO)c3ccccc32)c1Cl [Example 49, 1-(2,6-Dichloro-3-methylphenyl)-lH-indole-2,3-dione-3-oxime] |  |  | IC50 [5]: 28 µM |

| SMILES | IC50 [4] [µM] | ED40 [1] [mg/kg] | UD: percent of rats with gastric ulcers [2] | also measured |
| --- | --- | --- | --- | --- |
| Cc1ccc(Cl)c(Nc2ccccc2C(=O)O)c1Cl [Meclomen, reference compound] | 24 | 0.39 |  | ED25 ([3]; Rattus norvegicus, po): 8.2 mg/kg; TD50 at 6 h [6]: 36 mg/kg |
